Experiments:
[1] = system: agrégation plaquettaire (plasma de lapin enrichi en plaquettes); assay: Anti-aggregant activity: platelet aggregation induced by sodium arachidonate; assay type: cell-based; details: aggregation induced by arachidonate de sodium (50 µg/ml); rabbit platelet-rich plasma; read-out: concentration minimale active
Procedure: Dans cette étude, les composés de l'invention (100 µg/ml) ont été testés dans le but de quantifier leur pouvoir d'inhibition du maximum non-réversible d'agrégation plaquettaire (plasma de lapin enrichi en plaquettes) induite par l'arachidonate de sodium (50 µg/ml). Ainsi, la concentration minimale active pour le composé de l'exemple 17 est de 30 µM.

LDL natives = assay: Protection against LDL oxidation (Cu2+ system, 24 h incubation, FPLC analysis); assay type: biochemical; details: 10⁻⁵ M, 24 h incubation with native LDL and Cu²⁺ system, compared with probucol
Procedure: La capacité des composés de l'invention à diminuer les proportions de LDL oxydées a été mesurée de la façon suivante : on réalise une incubation de 24 heures regroupant des LDL natives, un système Cu²⁺ générateur de radicaux libres et les composés à tester. Les résultats sont obtenus après analyse du milieu par une technique chromatographique haute performance : la FPLC (Fast Protein Liquid Chromatography). Le pouvoir protecteur du composé testé est déterminé après comparaison du chromatogramme obtenu avec celui du témoin positif de référence : le probucol. Il apparaît clairement que les composés de l'invention ont un pouvoir protecteur très important. A titre de comparaison, pour une concentration de 10⁻⁵ M, le niveau de protection obtenu pour les composés de l'invention dépasse celui du probucol.

[2] = system: homogénats de cerveaux de rats; assay: Induced lipid peroxidation (Fe2+ - ascorbate) in rat brain homogenates (MDA); assay type: biochemical; details: ratio versus probucol, induced peroxidation (Fe²⁺ - ascorbate)
Procedure: L'action des composés utilisés selon l'invention, susceptibles de piéger les radicaux ·OH, a été étudiée d'une part, sur la peroxydation spontanée des lipides et d'autre part, sur la peroxydation induite par le système Fe²⁺ - ascorbate (10 µM - 250 µM), et ce, sur des homogénats de cerveaux de rats.
Lors de la mesure de la peroxydation lipidique spontanée, les homogénats de cerveau de rats sont placés en présence ou en absence des composés à tester durant 60 minutes à 37°C. La réaction est arrêtée à 0°C et le dosage du malondialdéhyde est effectué à l'aide d'acide thiobarbiturique. La peroxydation lipidique est déterminée par les substances réagissant avec l'acide thiobarbiturique exprimées en nanomoles de malondialdéhyde (MDA). Les concentrations des composés testés inhibant de 50 % la peroxydation du substrat sont calculées. Il est apparu que les composés de formule (I) utilisés selon l'invention possèdent une activité antiperoxydante particulièrement intense puisqu'ils possèdent une activité antiperoxydante nettement plus importante que le probucol et la vitamine E, qui est l'antioxydant naturel de l'organisme humain.
Lors de la mesure de la peroxydation lipidique induite, la méthodologie est identique à celle précédemment décrite à l'exception de l'addition à l'homogénat du système inducteur de radicaux : Fe²⁺ - ascorbate. […]

granulocytes de lapins = assay: Anti-inflammatory activity: leukotriene B4 release from A 23187-stimulated granulocytes (RIA); assay type: cell-based; details: stimulation by calcium ionophore A 23187, mean of 3 independent measurements, versus control, read-out: pouvoir inhibiteur (leucotriènes B₄ libérés)
Description: Les mesures sont réalisées sur granulocytes de lapins. Les granulocytes isolés sont stimulés in vitro par l'ionophore calcique (A 23187). Les leucotriènes B₄ libérés dans le milieu extracellulaire sont mesurés par Radio Immuno Assay (RIA). Les résultats (moyennes de 3 mesures indépendantes) sont exprimés en pourcentage d'inhibition par rapport au témoin.

Compound: CCCCN(C(=O)c1cc2cc(O)ccc2n1C)c1ccccc1 [exemple 17, N-(n-Butyl)-N-phényl-(5-hydroxy-1-méthylindol-2-yl)carboxamide]
- minimal effective concentration [1]: 30 µM
- pouvoir protecteur vis-à-vis d'un système oxydant des LDL (LDL natives): pratiquement total
- Ratio probucol [2]: 6
- inhibition at 10 µM (granulocytes de lapins): 51%

— patent EP0624575A1, “Substituted indoles and pharmaceutical compositions containing them” (ADIR ET COMPAGNIE, priority 1993, dated 1994)
